Measurements reported in patent US3985621A, “Stopping agents for enzyme reactions of dehydrogenase systems” (priority 1974, dated 1976).
Each block holds one molecule with its values, some of them ahead of it.

Legend:
[1] = Influence of alkaline buffer solutions on absorption intensity of coenzyme at 340nm; assay type: physicochemical; settings: for Absorption of NAD at 340nm: added to an enzyme reaction mixture containing EDTA
From the text: Such increasing action on absorption of NAD may continuously vary with the lapse of time and it is, therefore, difficult to correct influence caused therefrom.

[2] = tested on: dehydrogenase reaction; assay: Aqueous alkali solution of p-chloromercurybenzoate as stopping agent for dehydrogenase reaction; assay type: biochemical; settings: reaction mixture of commercially available diagnostic kits
From the text: It is also reported in the art that an aqueous alkali solution of p-chloromercurybenzoate is applicable as a stopping agent for dehydrogenase reaction (E. Raabo, Scandinavian Journal of Clinical & Laboratory Investigation, 17, (1965), 265). […] Then, the prior solution seems to be of no practical use.

[3] = Stability of absorption intensity of coenzyme at 340nm after dissolution in CAPS buffer solution; assay type: physicochemical; settings: for O.D. change at 340nm (change in absorbance per hour, 1 cm cell): coenzyme 1.1 × 10^-4 M, over 3 hours
Procedure: 1) Coenzyme dissolved in the indicated buffer solution to 1.1 ×
2) Change in absorbance per hour given when measured by the use of a cell
with optical path length of 1 cm.
3) Changes in absorbance of ±0.002A or less over 3 hours immediately
after dissolution are expressed as "not changed".

[4] = Absorption at 340nm of NAD or NADP dissolved in aqueous strong alkali; assay type: physicochemical; settings: e.g., sodium hydroxide or potassium hydroxide, then gradually decreased
From the text: Such changes continuously occur over several hours and the higher an alkali concentration is, the greater change is. It is, therefore, extremely difficult to find out such a condition that an enzyme reaction is stopped without any influence upon absorption of coenzyme, when an aqueous solution of a strong alkali having no buffer action is employed.

[5] = tested on: GOT; assay: Inhibitory action of CAPS buffer solution on dehydrogenase reaction, serum GOT diagnostic kit; assay type: biochemical, human
From the text: (§1) For measuring serum GOT or GPT activity, the reaction can be carried out through addition of malic dehydrogenase to the reaction medium in case of GOT and LDH in case of GPT, together with the enzyme substrates such as α-ketoglutaric acid and L-aspartic acid for the former enzyme or α-ketoglutaric acid and L-alanine for the latter, and a reduced form of NAD (hereinafter referred to as NADH) in either case. Oxaloacetic acid derived from aspartic acid with GOT (in case of GPT, pyruvic acid derived from alanine, the GPT case being hereinafter referred to in the parenthesis) is converted to malic acid (lacetic acid) with malic dehydrogenase (lactic dehydrogenase) and NADH concurrently with oxidation of NADH to NAD, which results in decrease of absorbance at 340nm arising from NADH. An amount of the oxaloacetic acid (pyruvic acid) produced by GOT (GPT) is stoichiometrically equal to that of the NADH to be oxidized and a GOT (GPT) activity can be, therefore, determined from an oxidized amount of NADH which is obtained from an absorbance decrease at 340nm.
(§2) Four enzymes which are widely employed for examination in clinical diagnosis among various serum enzymes, were tested on the inhibitory actions by CAPS buffer solution. […]

[6] = tested on: GPT; assay: Inhibitory action of CAPS buffer solution on dehydrogenase reaction, serum GPT diagnostic kit; assay type: biochemical, human
From the text: as §1, §2

[7] = tested on: ALD; assay: Inhibitory action of CAPS buffer solution on dehydrogenase reaction, serum ALD diagnostic kit; assay type: biochemical, human
From the text: In measuring ALD activity, one can carry out by adding to a reaction medium fructose-1,6-diphosphate which is a substrate, togethe with triose phosphate isomerase (hereinafter referred to as TMI) and glycerol-1-phosphate dehydrogenase (hereinafter referred to as GDH). In this system, the products by ALD are converted to dioxyacetone phosphoric acid, which is then converted to glycerol-1-phosphate by the action of GDH and NADH. NADH is simultaneously oxidized to NAD. Hydrolysis of 1 mole of fructose-1,6-diphosphate with ALD results in oxidation of 2 moles of NADH.
Four enzymes which are widely employed for examination in clinical diagnosis among various serum enzymes, were tested on the inhibitory actions by CAPS buffer solution. Some of our experiments are summarized in the Table 1 wherein changes in absorbance at 340nm during the whole process of the reaction are automatically recorded and expressed in terms of inhibition degree by adding serum to a reaction mixture for proceeding the reaction and then adding thereto CAPS buffer solution with varied concentrations, pH values and amounts added.
1) Diagnostic kits available from Calbiochem U.S.A., used for measuring
GOT, GPT and CPK and diagnostic kits available from Boeringer-Manheim,
West Germany, used for measuring ALD, standard human serum
(Caltrol-Abnormal) available from Calbiochem used for serum. […]

[8] = tested on: CPK; assay: Inhibitory action of CAPS buffer solution on dehydrogenase reaction, serum CPK diagnostic kit; assay type: biochemical, human
Procedure: CPK in serum is increased along with injury of skeletal muscle or heart muscle. For determination of CPK activity, creatine phosphoric acid and adenosine-5'-diphosphate (hereinafter referred to as ADP) are employed as substrates and further hexokinase (hereinafter referred to as HK), glucose, glucose-6-phosphate dehydrogenase (hereinafter referred to as G6PDH) and NADP are added to the reaction medium. By the action of CPK, ADP is converted to adenosine-5'-triphosphate (hereinafter referred to as ATP), while glucose in the reaction medium is converted to glucose-6-phosphate by the action of the ATP and HK. Thereafter, the glucose-6-phosphate is converted to 6-phosphogluconic acid by the action of G6PDH and NADP and NADP is converted to a reduced form of NADP (hereinafter referred to as NADPH), along with the conversion, which results in increased absorbance at 340nm. The ATP amount produced by CPK is stoichiometrically equal to that of NADP to be reduced.
as §2

[9] = CAPS buffer solution 0.25M,pH12.5

SMILES: N=C(N)NCCC[C@H](N)C(=O)O [arginine buffer solution, arginine]
Absorption of NAD at 340nm [1]: increase in absorption of NAD at 340nm

SMILES: O=C(O)c1cc[c]([Hg][Cl])cc1 [p-chloromercurybenzoate]
Inhibition of dehydrogenase reaction [2]: only partial inhibition

SMILES: NC(=O)c1ccc[n+]([C@@H]2O[C@H](COP(=O)([O-])OP(=O)(O)OC[C@H]3O[C@@H](n4cnc5c(N)ncnc54)[C@H](O)[C@@H]3O)[C@@H](O)[C@H]2O)c1 [NAD, nicotinamide-adenine dinucleotide]
O.D. change at 340nm (change in absorbance per hour, 1 cm cell) ([3]; CAPS buffer solution 0.25M,pH12.0): ≤ 0.005 A/hr/cm
O.D. change at 340nm (change in absorbance per hour, 1 cm cell) [3, 9]: ≤ 0.010 A/hr/cm
O.D. change at 340nm (change in absorbance per hour, 1 cm cell) ([3]; CAPS buffer solution 0.33M,pH11.5): ≤ 0.005 A/hr/cm
O.D. change at 340nm (change in absorbance per hour, 1 cm cell) ([3]; CAPS buffer solution 0.5M,pH11.5): ≤ 0.010 A/hr/cm
Stability of coenzyme in CAPS buffer solution ([3]; concentration 0.33M or more or pH 12 or higher): somewhat reduced
Time to peak of absorption intensity at 340nm [4]: 10 to 20 min

Absorption of NAD ([1]; at the concentration and pH value to inhibit an action of an enzyme): may increase absorption of NAD
SMILES: N=C(N)N [guanidine buffer solution, guanidine]

SMILES: NCC(=O)O [glycine buffer solution, glycine]
Absorption of NAD at 340nm [1]: increase in absorption of NAD at 340nm

SMILES: NC(=O)c1ccc[n+]([C@@H]2O[C@H](COP(=O)([O-])OP(=O)(O)OC[C@H]3O[C@@H](n4cnc5c(N)ncnc54)[C@H](OP(=O)(O)O)[C@@H]3O)[C@@H](O)[C@H]2O)c1 [NADP, nicotinamide adenine dinucleotide phosphate]
O.D. change at 340nm (change in absorbance per hour, 1 cm cell) [3, 9]: ≤ 0.005 A/hr/cm
Stability of coenzyme in CAPS buffer solution ([3]; pH 12.5 or higher): also reduced
Time to peak of absorption intensity at 340nm [4]: 10 to 20 min

SMILES: [Na+].[OH-] [NaOH soln., sodium hydroxide]
Complete inhibition concentration with aqueous NaOH soln. (Final concentration), GOT [5]: > 0.15 N
Complete inhibition concentration with aqueous NaOH soln. (Final concentration), GPT [6]: > 0.15 N
Complete inhibition concentration with aqueous NaOH soln. (Final concentration), ALD [7]: > 0.1 N
Complete inhibition concentration with aqueous NaOH soln. (Final concentration), CPK [8]: > 0.1 N
